Structure (SMILES)	melting point
COc1ccc(-c2c(Cl)c(CN3C(=O)COC3=O)nc3sc4c(c23)CCC(C(=O)O)C4)cc1 (centres undefined)	218 to 219 °C
CC(=O)N(C(C)=O)c1c(C#N)cnn1-c1c(F)cc(F)c(F)c1F	132 to 134 °C
CS(=O)(=O)Oc1ccccc1CC(=O)O	110 °C
COc1ccc(Cn2c(=O)c3ccc4ccccc4c3c3c4ccccc4ccc32)cc1	229 °C
N#Cc1ccc(Oc2ccccc2)cc1C#N	98 to 100 °C
O=C(C=CC=Cc1ccccc1)C=Cc1ccc([N+](=O)[O-])cc1	168 to 170 °C
Cc1ccc(-n2cc(C(=O)O)c(=O)c3ccc(-c4ccncc4)cc32)cc1C	301 to 303 °C
CC(Br)C(=O)OCN1C(=O)NC(c2ccccc2)(c2ccccc2)C1=O (centres undefined)	112 to 115 °C
CC(=O)Nc1nc(C)c(S(=O)(=O)NN2CCN(C)CC2)s1	245 °C
CCOC(=O)c1ccc(N2CCOCC2)cc1	82 to 83 °C
C1=NC=C2CCNC=C12	182 to 190 °C
CC1=C(C(=O)CS(=O)(=O)NC(C)C)C(c2cccc([N+](=O)[O-])c2)C(C(=O)OCCO)=C(C)N1 (centres undefined)	185 to 188 °C
CCN(CC)CCCC1CCCN(C(=O)N2c3ccccc3NC(=O)c3csc(C)c32)C1 (centres undefined)	136 to 138 °C
Fc1ccc2[nH]cc(CC3CCN(CCOc4ccc5c(c4)CCC5)CC3)c2c1	150 to 152 °C
CCCCOc1c(CN2C(=O)c3ccccc3C2=O)n(CC(C)(C)C)c(=O)c2ccc(F)cc12	162 to 164 °C
O=C(O)c1ccccc1SCCCCOc1ccc(C=Cc2ccncc2)cc1	229 to 231 °C
CNCCc1cccc(N2C(=O)N(c3c(Cl)cccc3Cl)Cc3cnc(Nc4ccccc4)nc32)c1	122 to 125 °C
COc1ccc(-c2coc3ccc(-c4nnc(C)o4)cc23)cc1F	159 to 160 °C
COc1cc2nc(CN(C)C)nc(Cl)c2cc1OC	78 to 80 °C
N[C@@H](Cc1cccc(OC(F)(F)C(F)F)c1)[C@H](O)c1ccc(F)nc1 (racemic)	103 to 104 °C
C(#Cc1ccsc1)c1cccnc1	62 °C
C#CCN1CC(=O)Oc2cc(F)c(NN)cc21	146 °C
CNC(=O)Oc1ccc(SC)c2c1CCCC2	146 to 147 °C
CC(C)(Cc1ccc(OC(F)(F)F)cc1)C(=O)C(C)(C)n1cncn1	100 °C
Cc1c(O)cc(N2C(=O)c3ccccc3C2=O)cc1C(=O)OCc1ccc([N+](=O)[O-])cc1	210 to 244 °C

Structure (SMILES)	melting point
NC(=O)c1sc2nccc(N3CCCN(c4ccccc4Cl)CC3)c2c1N	206 to 210 °C
Cc1ccc2c(c1)NC(=O)C(NC(=O)Nc1cccc(Cl)c1)CC2C1CCCCC1 (centres undefined)	162 to 169 °C
O=[N+]([O-])c1cnc2ccc(O)cc2c1-c1ccccc1	282 to 284 °C
CC(C)C1C(=O)N(c2ccc(N=Nc3ccc(N(C)C)cc3)cc2)C(=S)N1C (centres undefined)	164 to 169 °C
COC(=O)c1ccc(O)cc1NC(=O)c1ccc(C(C)(C)C)cc1	146 to 148 °C
Cc1nc(N)ccc1-c1ccccc1	110 to 113 °C
CC1CC(=O)c2c(C(=O)Nc3cccnc3)c[nH]c2C1 (centres undefined)	225 to 227 °C
CC(C)(C)OC(=O)NCCNC(=O)c1ccc(Cl)cn1	106 to 108 °C
O=C(O)C1Cc2c(cc(Cl)c3c(-c4ccccc4F)noc23)O1 (centres undefined)	191 to 193 °C
CC(=O)OCC(=O)C1(O)CCC2C3CCC4=CC(=O)CCC4(C)C3CCC21C (centres undefined)	236 °C
CC(C)(Oc1ccc(Cl)cc1)C(O)(Cn1cncn1)c1ccc(Cl)cc1 (centres undefined)	135 °C
COc1ccc(Oc2ccc(C(=O)N(C(C)C)C3CCCCC3)cc2)cc1OC	107 °C
CC(=O)Nc1nn(C)c2nc3n(c(=O)c12)CCS3	250 to 252 °C
COC(=O)c1cc2ccc(C(=O)O)cc2[nH]1	270 to 272 °C
Cc1cc(O)cc(Cl)c1Cl	98 to 100 °C
N=C(NCc1cnccn1)NN=Cc1c(Cl)cccc1Cl	168 to 169 °C
COC(=O)COc1ccc2c(O)c(C(C)=O)ccc2c1	118 to 120 °C
CS(=O)(=O)C(=C1CN(C(c2ccccc2)c2ccccc2)C1)c1cccc(Cl)c1Cl	201 °C
CC(=O)CCC(C)C1CC=C2C3=C(CCC21C)C1(C)CCC(O)C(C)(C)C1CC3 (centres undefined)	183 to 185 °C
O=[PH]1Oc2ccccc2-c2ccccc21 (centres undefined)	116 °C
N#CCN1CCc2ccccc2C(Oc2ccc(C(F)(F)F)cc2)C1 (centres undefined)	125 to 129 °C
Nc1cccc(-c2cncc(OC[C@@H]3CCN3)c2)c1	85 to 87 °C
CCSc1ccc(OC(C)c2ccnc3ncnn23)cc1 (centres undefined)	65 to 67 °C
CC(C)(C)c1ccc(/C=C/C(=O)Nc2ccc3c(ccn3CCO)c2)cc1	182 °C
O=C(C1CCC(Nc2nccc(-n3cc(Cc4ccc(-c5ccncc5)cc4)nn3)n2)CC1)N1CCC(O)CC1 (centres undefined)	266 to 267 °C

Structure (SMILES)	melting point
CCOC(=O)CCc1nc(-c2cc3ccccc3o2)cs1	65 to 66 °C
COc1ccc(C[C@@H](NC(=O)c2cccc3ccccc23)[C@@H](O)c2ccc(F)cc2)cc1 (racemic)	198 to 199 °C
NS(=O)(=O)c1cc(C2OCCO2)cs1	225 to 227 °C
Oc1ccccc1C=Cc1cccc2[nH]ccc12	140 °C
CSc1cccc(-n2cnc(C(=O)O)c2)c1	190 to 192 °C
C#CCON=Cc1cc(Cl)ccc1OC(=O)NC	97 to 100 °C
CNC(=O)c1ccccc1Nc1nc(Nc2cccc3c2N(C)CCN(C)C3=O)ncc1Cl	243 to 244 °C
Cc1cc(=O)c2[nH]c3ccccc3c2s1	295 to 296 °C
CC1(C)CCC(C)(C)c2cc(-c3cn(-c4ccc(C(=O)O)cc4)c(S)n3)ccc21	170 to 172 °C
CCCNC(=O)C(C)(C)n1cc(C)c(-c2ccccc2)n1	47 to 50 °C
N#Cc1c(N)[nH]c2ccc(Sc3ccc(O)cc3)cc12	241 to 242 °C
O=C1CCCN1C(=O)c1ccc(OCc2ccccc2)cc1	115 to 117 °C
O=[N+]([O-])c1ccc2sc(=Nc3ccccc3)sc2c1	136 to 138 °C
COC(=O)CCC(=O)c1cc(NC(C)=O)ccc1OCC(O)CNC(C)(C)C (centres undefined)	127 to 128 °C
CC(=O)Nc1c(C(=O)c2cccc(OCc3ccccc3)c2)[nH]c2cc(Cl)ccc12	159 to 161 °C
Cc1cc(OCCCC(C)(C)C(=O)O)c(C)c(C)c1OCc1ccccc1	105 to 107 °C
O=C(NCCCCSc1ccncc1)c1ccccc1	75 to 77 °C
Cc1nc2ccccc2nc1S(=O)Cc1ccccc1N(C)C (centres undefined)	68 to 70 °C
CCOc1ccccc1-c1nc2c(C)cccc2c(=O)[nH]1	177 to 180 °C
CC(N1CCN(c2nnn(Cc3ccc(C(C)(C)C)cc3)n2)CC1)C(O)(Cn1cncn1)c1ccc(F)cc1F (centres undefined)	99 to 101 °C
CC(C)=Cc1c(C)nc(C)c(CO)c1-c1ccccc1	48 to 50 °C
CC(C)(C)c1cc(I)c(O)c(CNC(=O)C(F)(F)F)c1	118 to 119 °C
CCOC(=O)Nc1cc(OC(C)C)c(Cl)cc1F	89 to 91 °C
COc1ccc(Sc2ccc3[nH]cc(C4CCN(C)CC4)c3c2)cc1	160 to 162 °C

Source: a melting point compilation (Tetko et al.; mined from patent text by program, amines drawn as free bases though some values may be those of a salt)
